Reference: patent USRE37781E1, “Substituted cyclic carbonyls and derivatives thereof useful as retroviral protease inhibitors” (DuPont Pharmaceuticals Company, priority 1991, dated 2002)
≈ marks a conversion by molar mass, not a printed value. Where a name gives a salt, the structure may show the parent alone. Read-outs that look alike come from different tables or passages of the source. Values belong to the molecule of their own block, whether it stands above or below them.

Experiments:
[1] = test system: HIV-1 (RF) in MT-2 cells; test: microbe, parasite or virus in culture; type: cell-based
Summary of the method: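 HIV-1 laboratory strains (RF, MN, IIIB) grown in H9 cells in RPMI 1640 with 5% FCS; infections in MT-2 cells. Viral RNA quantified by hybridization with biotinylated gag/pol capture probes on streptavidin plates and alkaline phosphatase-conjugated reporter probes; BH10 gag-pol in vitro transcripts serve as RNA standards.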

[2] = molecular target: single-chain tethered dimer of HIV protease (Human immunodeficiency virus 1, UniProt P04585); test: biochemical; type: biochemical; parameters: fused on or other part: A second copy of the same protease unit is joined to the first by a short peptide tether, giving one polypeptide
[3] = Human immunodeficiency virus 1, MT2, 48 h, Table 2d, HIV RNA assay, read-out: IC90
[4] = Human immunodeficiency virus 1, MT2, 48 h, Table 2d, class symbols, read-out: IC90
[5] = read-out: HPLC K1, Table 2d, HIV protease inhibition, HPLC method
[6] = Human immunodeficiency virus 1, MT2, HIV RNA assay, HIV-1 infected MT-2 cells, class symbols, read-out: IC90
[7] = Table 2d, class symbols, read-out: HPLC K1
[8] = read-out: HPLC K1, Table 2d, class symbols

Compound: O=C1N(Cc2cccc(-c3cc[nH]n3)c2)C(Cc2ccccc2)C(O)C(O)C(Cc2ccccc2)N1Cc1cccc(-c2cc[nH]n2)c1 (centres unmarked) [Example 15YL]
- IC90 [1, 3]: < 10 µg/mL
- melting point: 208 to 210 °C

Compound: O=C1N(Cc2cccc(-c3ncc[nH]3)c2)C(Cc2ccccc2)C(O)C(O)C(Cc2ccccc2)N1Cc1cccc(-c2ncc[nH]2)c1 (centres unmarked) (as salt: hydrochloride) [Example 15BS]
- melting point: 191 to 194 °C

Compound: O=C1N(Cc2cccc(OCc3ccccc3)c2)C(Cc2ccccc2)C(O)C(O)C(Cc2ccccc2)N1Cc1cccc([N+](=O)[O-])c1 (centres unmarked) (hydrate or solvate) [11P]
- melting point: 173 to 176 °C

- IC90 [1, 4]: < 10 µg/mL
- melting point: 200 to 202 °C
Compound: CC(=NO)c1cccc(CN2C(=O)N(Cc3cccc(C(C)=NO)c3)C(Cc3ccccc3)C(O)C(O)C2Cc2ccccc2)c1 (centres unmarked) [Example 9Q]

Compound: CC1C(O)C(O)C(C)N(Cc2ccc3ccccc3c2)C(=O)N1Cc1ccc2ccccc2c1 (centres unmarked) [Example 16H]
- Ki ([2]; read-out: K4 HPLC, Table 2e): > 1000 nM
- melting point: 236 to 238 °C

Compound: CCCCCC1C(O)C(O)C(CCCCC)N(Cc2ccccc2)C(=O)N1Cc1ccccc1 (centres unmarked) [Example 16AH]
- Ki ([2]; read-out: K4 HPLC, Table 2e): 10 to 1000 nM
- melting point: 94 to 97 °C

Compound: Cc1ccc(CN2C(=O)N(Cc3ccc(CO)cc3)C(Cc3ccccc3)C(O)C(O)C2Cc2ccccc2)cc1 (centres unmarked) [15EI]
- Ki [2, 5]: < 10 nM
- melting point: 174 to 175 °C

Compound: O=C1N(Cc2cccc3ccccc23)C(Cc2ccccc2)C(O)C(O)C(Cc2ccccc2)N1Cc1cccc2ccccc12 (centres unmarked) [Example 3T]
- IC90 [1, 6]: > 100 µg/mL
- melting point: 231 to 233 °C

Compound: CCCCCCC1C(O)C(O)C(CCCCCC)N(Cc2ccccc2)C(=O)N1Cc1ccccc1 (centres unmarked) [Example 16AI]
- Ki ([2]; read-out: K4 HPLC, Table 2e): 10 to 1000 nM
- melting point: 79 to 82 °C

Compound: O=C1N(Cc2ccccn2)C(Cc2ccccc2)C(O)C(O)C(Cc2ccccc2)N1Cc1ccccn1 (centres unmarked) [Example 3M]
- IC90 [1, 6]: 10 to 100 µg/mL (≈ 19.7 to 197 µM)
- melting point: 151 to 153 °C

Compound: O=C1NC(Cc2ccccc2)C(O)C(O)C(Cc2ccccc2)N1 (centres unmarked) [Example 13P]
- IC90 ([1]; Table 2d, class symbols): + (+=>100 μg/mL)
- Ki [2, 7]: > 1000 nM

Compound: CCN(CC)C(=O)c1cccc(CN2C(=O)N(Cc3cccc(C(=O)OC)c3)C(Cc3ccccc3)C(O)C(O)C2Cc2ccccc2)c1 (centres unmarked) [11T]
- IC90 [1, 4]: < 10 µg/mL
- Ki [2, 8]: < 10 nM

Compound: O=C1N(Cc2cccc(I)c2)C(Cc2ccccc2)C(O)C(O)C(Cc2ccccc2)N1Cc1cccc(I)c1 (centres unmarked) [Example 12J]
- IC90 [1, 4]: < 10 µg/mL
- Ki [2, 8]: < 10 nM

Compound: CCCCN1C(=O)N(CCCC)C(Cc2ccccc2[N+](=O)[O-])C(O)C(O)C1Cc1ccc([N+](=O)[O-])cc1 (centres unmarked) [20C]
- IC90 ([1]; Table 2i): +++ (+++=<10 μg/mL)
- Ki ([2]; Table 2i, read-out: HPLC Ki): < 10 nM

Compound: Nc1noc2ccc(CN3C(=O)N(Cc4ccc5onc(N)c5c4)C(Cc4ccccc4)C(O)C(O)C3Cc3ccccc3)cc12 (centres unmarked) [15DG]
- IC90 ([1]; Table 2d, HIV RNA assay): +++ (+++=<10 μg/mL)
- Ki ([2]; Table 2d, HIV protease inhibition, HPLC method, read-out: HPLC K1): < 10 nM

Compound: O=S1(=O)N(CCCCCO)C(Cc2ccccc2)C(O)C(O)C(Cc2ccccc2)N1Cc1ccc(CO)cc1 (centres unmarked) [23AG]
- IC90 ([1]; Table 2m): +++ (+++=<10 μg/mL)
- Ki ([2]; Table 2m, read-out: HPLC Ki): < 10 nM

Compound: O=C1N(Cc2cccc(CO)c2)C(Cc2ccccc2)C(O)C(O)C(Cc2ccccc2)N1Cc1cccc(-c2cc[nH]n2)c1 (centres unmarked) [Example 15BQ]
- IC90 [1, 3]: < 10 µg/mL
- Ki [2, 5]: < 10 nM

Compound: O=C1N(Cc2ccc(CO)cc2)C(Cc2ccccc2)C(O)C(O)C(Cc2ccccc2)N1Cc1ccccc1O (centres unmarked) [15EA]
- IC90 [1, 3]: < 10 µg/mL
- Ki [2, 5]: < 10 nM

Compound: CCCN1C(Cc2ccccc2)C(O)C(O)C(Cc2ccccc2)N(CCC)S1(=O)=O (centres unmarked) [23X]
- IC90 ([1]; Table 2m): +++ (+++=<10 μg/mL)
- Ki ([2]; Table 2m, read-out: HPLC Ki): < 10 nM

Compound: Cc1cncc(O)c1CN1C(=O)N(Cc2c(C)cncc2O)C(Cc2ccccc2)C(O)C(O)C1Cc1ccccc1 (centres unmarked) [Example 14K]
- IC90 ([1]; Table 2d, class symbols): + (+=>100 μg/mL)
- Ki [2, 7]: 10 to 1000 nM

Compound: COc1cccc(CC2C(O)C(O)C(Cc3cccc(OC)c3)N(CC3CC3)C(=O)N2CC2CC2)c1 (centres unmarked) [20AS]
- IC90 ([1]; Table 2i): +++ (+++=<10 μg/mL)
- Ki ([2]; Table 2i, read-out: HPLC Ki): < 10 nM

Compound: O=C(NCCCCCN1C(=O)N(CCCCCNC(=O)c2cnccn2)C(Cc2ccccc2)C(O)C(O)C1Cc1ccccc1)c1cnccn1 (centres unmarked) [15FF]
- IC90 ([1]; HIV RNA assay, HIV-1 infected MT-2 cells, Table 2d): ++/+ (The ++/+ is used in the cases where an IC90 was determined to be >50 μg/mL)
- Ki ([2]; HIV protease inhibition, HPLC method, Table 2d, read-out: HPLC K1): > 1000 nM

Compound: NC(=O)c1cccc(CN2C(=O)N(Cc3cccc(C(N)=O)c3)C(Cc3ccccc3)C(O)C(O)C2Cc2ccccc2)c1 (centres unmarked) [10G]
- IC90 [1, 4]: < 10 µg/mL
- Ki [2, 8]: < 10 nM
